The results in this text go back to patent US20240262812A1, “N-SUBSTITUTED PHENYLSULFONAMIDE COMPOUND AND USE THEREOF” (Shanghai Leado Pharmatech Co., Ltd., priority 2021, published 2024).

In test [1] the target is T1, mTRPA1 (Mus musculus, UniProt Q8BLA8).
T1 construct: expressed in transfected cells
Put plainly: IonWorks Barracuda (IWB) automated patch clamp, TRPA1 inhibitory activity. It counts as cell-based. As to conditions: HEK293 cells stably expressing mTRPA1, current induced by AITC, amplitude at +100 mV; read-out: IC50 (inhibition activity on TRPA1). The method, boiled down: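 HEK293 cells stably expressing mouse TRPA1, perforated-patch whole-cell recording (amphotericin B) on IonWorks Barracuda; holding 0 mV, −100 to +100 mV ramp over 300 ms every 10 s. Current evoked by 300 µM AITC, leak-subtracted, amplitude taken at +100 mV; IC50 from fitted dose-effect curves, HC030031 as plate reference.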
A general note: In patch-clamp work, channel activity is measured electrically.

Test [2] has as its system acetic acid induced writhing in ICR mice. The experiment in a line: acetic acid induced writhing pain model in ICR mice. The settings on record: for writhing frequency: 30 mg/kg single oral administration 1 h before 0.6% acetic acid i.p., 20 minutes observation, compared with G1 model group, FIG. 6; for efficacy compared with aspirin: 30 mg/kg single oral administration vs 200 mpk of aspirin. Format: in vivo, mouse. An excerpt:
The pharmacological effect of compounds prepared in some examples of the present invention on an acetic acid induced writhing pain model in ICR mice was investigated.
The acetic acid writhing pain model in mice is a classic pharmacological model for evaluating the treatment of drugs for visceral pain and inflammatory pain.
• Animal species and strains: ICR mice • Medical treatment history: None • Gender, age, and weight: Male, 8 weeks old, 20-25 g • Breeder/Supplier: Shanghai SLAC Laboratory Animal Co., Ltd • Adaptation period: no less than 7 days • Room: Regular level room • Room temperature: 19-26° C. • Relative humidity: 40-70% • Lighting cycle: fluorescent lighting, 12 hours of illumination (08:00-20:00) and 12 hours of no illumination • Animal feeding: 5 animals/cage divided by group • Food: Free intake (irradiated feed, Shanghai SLAC Laboratory Animal Co., Ltd, China) • Water: Free intake (Mol Ultrapure Water System filtered municipal tap water)
A total of 70 mice were introduced from Shanghai SLAC Laboratory Animal Co., Ltd. The animals were SPF grade and purchased at approximately 7 weeks old.
Animals are randomly assigned to each treatment group according to the weight using the BioBook randomization function to achieve an approximate average weight for each group and reduce inter group bias.
3.1 Within 12 hours before use, a glacial acetic acid solution with a mass volume fraction of 0.6% was prepared with 0.9% physiological saline.
3.2. Administration treatment: G1 group animals were orally administered 0.9% physiological saline; G2-G6 were specifically administered the compounds of the present invention referred to the specific dosage regimen in Table 9.
3.3. Modeling treatment: G1 group animals were administered 0.9% physiological saline by gavage, and after 1 hour, 0.6% glacial acetic acid was injected intraperitoneally to induce pain response (10 ml/kg). G2-G8 group animals were injected intraperitoneally with 0.6% glacial acetic acid to induce pain response (10 ml/kg) after different groups were administered according to the regimen designed in Table 9.
3.4 Measurement: The weight of all mice was recorded before modeling treatment. A torsion test was recorded immediately after acetic acid treatment. The behavioral observation period lasted for 20 minutes. Writhes were counted by a single preson (one standard writhe includes abdominal muscle contraction, muscle extension, and hind limb extension). After testing, the animals were euthanized with CO2.
3.5 Experimental observation: Animal health observation and general response to drug treatment were conducted daily. All abnormal health and behavioral behaviors were recorded.
The experimental data was calculated as mean±standard error. Statistical analysis was performed using Graphpad Prism, SPSS, or Sigmaplot software. The specific data is presented in the form of graphs. P<0.05 is considered to have statistical differences.

As usually defined, the IC50 is the concentration that gives 50% inhibition.

Molecules are shown by their SMILES.

T1 sequence (Q8BLA8 whole entry): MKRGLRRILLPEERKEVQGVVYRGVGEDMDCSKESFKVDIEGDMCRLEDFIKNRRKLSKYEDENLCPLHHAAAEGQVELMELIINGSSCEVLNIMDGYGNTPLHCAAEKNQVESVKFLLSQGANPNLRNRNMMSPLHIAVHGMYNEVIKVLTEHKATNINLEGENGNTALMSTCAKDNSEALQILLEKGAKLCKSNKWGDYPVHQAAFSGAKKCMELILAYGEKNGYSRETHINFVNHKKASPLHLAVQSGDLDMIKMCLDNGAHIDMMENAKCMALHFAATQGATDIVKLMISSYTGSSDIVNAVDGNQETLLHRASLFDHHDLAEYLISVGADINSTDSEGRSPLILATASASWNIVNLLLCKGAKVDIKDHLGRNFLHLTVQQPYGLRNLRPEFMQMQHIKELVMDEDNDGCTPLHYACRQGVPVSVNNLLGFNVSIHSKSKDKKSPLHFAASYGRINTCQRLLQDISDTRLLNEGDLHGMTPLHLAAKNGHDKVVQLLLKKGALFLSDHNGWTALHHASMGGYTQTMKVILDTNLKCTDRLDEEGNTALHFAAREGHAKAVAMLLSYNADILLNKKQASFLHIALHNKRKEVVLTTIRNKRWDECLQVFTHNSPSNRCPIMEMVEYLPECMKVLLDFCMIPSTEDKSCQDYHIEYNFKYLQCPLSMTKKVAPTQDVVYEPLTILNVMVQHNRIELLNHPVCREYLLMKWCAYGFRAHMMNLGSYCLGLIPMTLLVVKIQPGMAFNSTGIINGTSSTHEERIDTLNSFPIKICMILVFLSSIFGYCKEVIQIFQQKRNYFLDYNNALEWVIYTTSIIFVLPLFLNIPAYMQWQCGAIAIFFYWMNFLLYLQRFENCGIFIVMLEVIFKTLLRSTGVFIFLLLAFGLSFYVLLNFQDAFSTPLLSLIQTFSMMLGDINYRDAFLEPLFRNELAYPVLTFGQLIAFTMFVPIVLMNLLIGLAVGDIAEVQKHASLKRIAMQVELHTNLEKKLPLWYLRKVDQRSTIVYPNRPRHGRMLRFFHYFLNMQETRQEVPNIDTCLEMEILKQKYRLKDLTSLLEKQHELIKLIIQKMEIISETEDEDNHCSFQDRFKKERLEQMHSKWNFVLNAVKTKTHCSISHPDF

With `CNCc1ccc(-c2cc[nH]n2)c(NS(=O)(=O)c2ccccc2)c1` [IA-55, N-(5-((methylamino)methyl)-2-(1H-pyrazol-3-yl)phenyl)benzenesulfonamide], in test [1], the IC50 is < 1 µM. In test [2], the writhing frequency entry was “significantly reduce” and the “efficacy compared with aspirin” value is given as “basically equivalent to that of 200 mpk of aspirin”.
As to `CNCc1ccc(-c2nccs2)c(NS(=O)(=O)c2ccccc2)c1` [IA-51, N-(5-((methylamino)methyl)-2-(thiazol-2-yl)phenyl)benzenesulfonamide], the IC50 in test [1] is < 1 µM. For the same molecule, in test [2], the writhing frequency entry is “significantly reduce” and the “efficacy compared with aspirin” value is “basically equivalent to that of 200 mpk of aspirin”.
Turning to `NCc1ccc(NS(=O)(=O)c2ccsc2)c(-c2ccco2)c1` [ID-5], in test [1], the IC50 is < 1 µM. Moreover, in test [2], the writhing frequency result is reported as “significantly reduce” and the “efficacy compared with aspirin” value is recorded as “basically equivalent to that of 200 mpk of aspirin”.
With `CNCc1ccc(NS(=O)(=O)c2ccsc2)c(-c2ccco2)c1` [IA-30], the IC50 in test [1] was < 1 µM. In test [2], the writhing frequency result is reported as “significantly reduce” and the “efficacy compared with aspirin” value is “basically equivalent to that of 200 mpk of aspirin”.
